Source: patent US6235493A, “Amino acid substituted-cresyl violet, synthetic fluorogenic substrates for the analysis of agents in individual in vivo cells or tissue” (priority 1998, dated 2001)

Assays:
[1] = target: T1, dipeptidyl peptidase IV (DPPIV) (CD26) (Rattus norvegicus, UniProt P14740); assay: cell-based; assay type: cell-based; conditions: for mode of inhibition of DPPIV: individual living rat hepatocytes, image analysis
T1 construct: individual freshly isolated living rat hepatocytes; endogenous in cells; host or cells: hepatocytes freshly isolated from livers of male Wistar rats
T1 sequence (P14740 whole entry): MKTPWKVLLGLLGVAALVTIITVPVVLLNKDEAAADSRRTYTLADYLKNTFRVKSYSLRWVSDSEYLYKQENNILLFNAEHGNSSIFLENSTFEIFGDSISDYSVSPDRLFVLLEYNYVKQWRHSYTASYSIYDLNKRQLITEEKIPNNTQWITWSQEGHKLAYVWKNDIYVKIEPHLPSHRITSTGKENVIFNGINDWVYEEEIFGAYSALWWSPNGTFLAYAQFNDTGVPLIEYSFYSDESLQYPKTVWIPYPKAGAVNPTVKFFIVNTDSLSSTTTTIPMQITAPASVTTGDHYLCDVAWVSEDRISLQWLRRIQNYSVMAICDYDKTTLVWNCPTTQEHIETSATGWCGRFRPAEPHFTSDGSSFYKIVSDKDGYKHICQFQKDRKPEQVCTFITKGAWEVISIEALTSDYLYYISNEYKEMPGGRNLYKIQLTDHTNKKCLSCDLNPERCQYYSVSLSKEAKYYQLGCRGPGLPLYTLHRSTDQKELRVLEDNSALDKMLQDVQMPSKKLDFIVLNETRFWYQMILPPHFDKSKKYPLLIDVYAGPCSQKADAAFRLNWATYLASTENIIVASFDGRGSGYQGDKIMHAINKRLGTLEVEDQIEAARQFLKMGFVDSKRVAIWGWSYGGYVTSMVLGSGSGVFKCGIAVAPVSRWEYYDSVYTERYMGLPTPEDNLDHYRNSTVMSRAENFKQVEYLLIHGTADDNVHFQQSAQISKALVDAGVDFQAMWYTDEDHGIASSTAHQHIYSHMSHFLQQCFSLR
Method: Hepatocytes were isolated by collagenase perfusion of livers of male Wistar rats (200-250 g; HSD Animal Farm, Zeist, The Netherlands) after 24 h of starvation as described previously (30). The animals were exposed to a controlled dark-light cycle (light: 7:00 a.m.-7:00 p.m.) throughout the acclimatization period of at least 1 week. Before starvation, animals had free access to food (standard chow diet; Hope Farms, Woerden, The Netherlands) and water. The animals had always free access to water. During operation, the animals were under Nembutal anaesthesia. Animal care was performed according to the guidelines of the University of Amsterdam. Hepatocytes (5-10 mg dry mass/ml) were kept in Krebs-Henseleit bicarbonate medium containing 1.3 mM Ca^2+, 10 mM sodium Hepes (pH 7.4), 20 mM glucose and 1 mM octanoate on ice until enzyme assays. Homogenates were prepared by freezing cell suspensions in liquid nitrogen and subsequent thawing. One volume of homogenates and 10 volumes of 20 mM Tris-HCI buffer (pH 7.4) containing 1% (v/v) Triton X-100 were mixed and incubated at 4° C. under constant stirring for 60 min. One part of these homogenates was used for the determination of DPPIV activity. Another part was centrifuged (40,000 x g, 4° C., 20 min) and the supernatants were used as membrane fractions for the determination of DPPIV activity.
Analysis of DPPIV Activity
DPPIV activity was determined in hepatocytes using 6 approaches. Activity was determined in living hepatocytes with confocal scanning laser microscopy, image processing and analysis, flow cytometry, and fluorometry. Fluorometry was also used for the determination of activity in homogenates of hepatocytes and in membrane fractions of hepatocytes. Incubations were started at t=0 by adding an aliquot of 60 μl hepatocytes to 3 ml Krebs-Henseleit medium containing 0-50 μM (Ala-Pro)^2 -cresyl violet in the presence or absence of 0-50 μM Ala-Pip^p (OPh-4-Cl)2 (Enzyme Systems Products), which is a selective DPPIV inhibitor (31A,32A). Substrate and inhibitor were dissolved first in dimethylsulfoxide. The final concentration of dimethylsulfoxide in the incubation medium was 0.5% (v/v). Incubations were carried out at 20° C. Confocal scanning laser microscopy was performed after 100 μl of an assay medium containing hepatocytes was brought into a well formed by a stainless steel ring attached to a glass slide (33A). Images of cells were captured in time with a Leica confocal scanning laser microscope fitted to a Leica Fluovert inverted microscope equipped with a PL APO oil-immersion objective (63×, NA 1.40). Excitation was performed at 568 nm and fluorescence was captured at >595 nm. The pinhole aperture was set to provide an optimized image (34A). Cells were subjected to optical serial sectioning after each 60 sec of incubation up to 300 sec. Images in the X-Y plane were recorded with intervals of 0.5 μm in the Z direction. Each optical section was averaged 8 times. Images were recorded din a 512×512 pixel format. The size of each pixel represented 0.015 μm^2 in the object. Confocal data stacks of 20-30 optical sections were processed with standard Leica software package.
Image analysis was performed by transferring an aliquot of 100, μl of an incubation medium containing hepatocytes into an incubation chamber that consisted of an object glass and a cover glass separated by a spacer made of adhesion tape with a thickness of […]. The object glass was set on the stage of a fluorescencee microscope (Leitz Dialux 20, Wetzlar, Germany) with a ×25 objective (NA 0.75). A drop of medium was placed beside the cover glass and the chamber became filled by capillary forces in a few seconds. […]

[2] = tested on: dipeptidyl peptidase IV (DPPIV); assay: DPPIV activity in membrane fractions of hepatocytes (fluorometry); assay type: biochemical, rat; conditions: membrane fractions of the same hepatocyte suspensions
Method: Hepatocytes were isolated by collagenase perfusion of livers of male Wistar rats (200-250 g; HSD Animal Farm, Zeist, The Netherlands) after 24 h of starvation as described previously (30). The animals were exposed to a controlled dark-light cycle (light: 7:00 a.m.-7:00 p.m.) throughout the acclimatization period of at least 1 week. Before starvation, animals had free access to food (standard chow diet; Hope Farms, Woerden, The Netherlands) and water. The animals had always free access to water. During operation, the animals were under Nembutal anaesthesia. Animal care was performed according to the guidelines of the University of Amsterdam. […]
DPPIV activity was determined in hepatocytes using 6 approaches. Activity was determined in living hepatocytes with confocal scanning laser microscopy, image processing and analysis, flow cytometry, and fluorometry. […] Excitation was performed at 568 nm and fluorescence was captured at >595 nm. […] Images in the X-Y plane were recorded with intervals of 0.5 μm in the Z direction. […] Images were recorded din a 512×512 pixel format. […]
Calibration was performed by measuring fluorescence of a series of solutions of 0-10 μM cresyl violet in Krebs-Henseleit medium. These solutions were also used to test the properties of cresyl violet for quantitative purposes. The depth of the incubation chamber was 24 μm and the size of the area measured 240×170 μm. […]

[3] = Fluorescence properties of cresyl violet (image analysis calibration); assay type: physicochemical
Method: Calibration was performed by measuring fluorescence of a series of solutions of 0-10 μM cresyl violet in Krebs-Henseleit medium. These solutions were also used to test the properties of cresyl violet for quantitative purposes. The depth of the incubation chamber was 24 μm and the size of the area measured 240×170 μm. The total volume that was measured was thus 0.001 μl. The amount of fluorescence captured by image analysis was linearly related with concentrations up to at least 10 μM when measured in a thin film of 24 μm which approximates the diameter of cells (FIG. 2A). Thus, cresyl violet has fluorescence properties that are necessary for quantitative fluorescence microscopy (36B). On the basis of FIG. 2A, it was calculated that 100 gray values corresponded with 6.7 fmoles cresyl violet. […] Flow cytometric analysis of production of cresyl violet in hepatorcytes was performed with a FAC-Star Plus (Becton and Dickinson, San Jose, Calif., USA) using the software program CellQuest (version 1.0; Becton and Dicksinson). Prior to analysis, cells were stained with the DNA dye Hoechst 3.3.3.4.2 (36 ,μg/ml; Hoechst Holland, Amsterdam, The Netherlands) for 30 min at 0° C. Analysis was started by established forward scatter and then substrate was added at t=0. Analysis was performed at a flow rate of 200 cells/sec. The parameters measured were time, forward scatter, fluorescence of Hoechst 3.3.3.4.2 dye (excitation at 350 nm, emission at 485 nm with a band width of 20 nm), and fluorescence of cresyl violet (excitation at 514 nm, emission at 630 nm with a band width of 22 nm). Filters were obtained from Becton and Dickenson. The power of the lasers was set at […]. Fluorometric analysis with time was carried out with a Perkin-Elmer LS 50 fluorescence spectrometer (Perkin-Elmer, Gouda, The Netherlands) under continuous magnetic stirring. Cuvettes with a light path of 1 cm were used. Excitation was performed at 591 nm with a slid width of 10 nm and emission was measured at 628 nm (slid width 10 nm). The first measurement was made at 5 sec after mixing cells and incubation medium.

[4] = Water solubility (stated); assay type: physicochemical; conditions: free cresyl violet; avoids accumulation around mitochondria

C[C@H](N)C(=O)N1CCCCC1P(=O)(Oc1ccc(Cl)cc1)Oc1ccc(Cl)cc1 (some centres unmarked) [Ala-Pip^p (OPh-4Cl)2, Ala-Pip^p (OPh-4-Cl)2]
Ki [1]: 7 µM
mode of inhibition of DPPIV [1]: selective competitive inhibitor
mode of inhibition of DPPIV ([1]; listed as dipeptide phosphonate inhibitor): competitively

C[C@H](N)C(=O)N1CCC[C@H]1C(=O)NC1=CC2Oc3cc(NC(=O)[C@@H]4CCCN4C(=O)[C@H](C)N)ccc3N=C2c2ccccc21 (stereo partly drawn) [Ala-Pro-cresyl violet, [Ala-Pro]^2-cresyl violet]
inverse relationship between Km and Vmax in membrane fractions [2]: lost
Vmax in individual hepatocytes [1]: 4-16 nU
Km ([1]; hepatocytes): 6 to 22 µM
conversion rate in the rat with the highest Vmax and lowest Km vs rat with the lowest Vmax and highest Km ([1]; physiological substrate concentrations): 10- to 20 fold

N=c1cc2oc3cc(N)ccc3nc-2c2ccccc12 [cresyl violet]
fading of fluorescence during measurements in time ([3]; FIG. 2B): Fading did not occur to any significant extent
amount corresponding with 100 gray values ([3]; image analysis calibration, FIG. 2A): 6.7 fmol
linearity of fluorescence with concentration (up to) ([3]; thin film of 24 μm, Krebs-Henseleit medium): at least 10 μM
water solubility [4]: sufficiently water soluble
